# The source made the active and inactive calls.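 How the source made its calls: active means z-score above 3 at 5 µM with at least 500 cells counted in the well; inconclusive means wells under 500 cells, flagged as cytotoxic or low count; inactive means the rest.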
# System: MIN6 insulin promoter-GFP reporter, high-content imaging
# Assay: up-regulation of insulin promoter-GFP reporter – imaging, high-content screening, mouse beta cells (AID 1625)
row,Structure (SMILES),EC50
1,CC(=O)n1c(C=Nc2ccccc2)c(O)c2ccccc21,10.1 µM (inactive)
2,C(=C/c1nccc2c1[nH]c1ccccc12)/c1ccc2c(c1)OCO2,11.9 µM (inactive)
3,C=CCN1C(=O)c2cccc3c(N4CCCCC4)ccc(c23)C1=O,5.42 µM
4,O=C1c2cccc3c(N4CCCCC4)ccc(c23)C(=O)N1c1ccccc1O,> 16 µM (inactive)
5,N#Cc1c(C(F)(F)F)cc(-c2ccccc2)nc1SCc1nc(N)nc(N2CCOCC2)n1,3.73 µM
6,O=[N+]([O-])c1ccc(-c2ccc(/C=N/Nc3nc(NCc4ccccc4)nc(N4CCOCC4)n3)o2)cc1,> 16 µM (inactive)
7,O=[N+]([O-])c1ccc(C2=NN(c3ccccc3)C(c3ccco3)C2)cc1 (configuration not stated),9.19 µM
8,N#CC1=C(N)C(C#N)(C#N)[C@H](c2ccoc2)[C@H]2CN(Cc3ccccc3)CC=C12,9.87 µM
9,CCCN1CC=C2C(C#N)=C(N)C(C#N)(C#N)C(c3cc(OC)ccc3OC)C2C1 (configuration not stated),5.05 µM
10,CCOc1cc([N+](=O)[O-])cc2c1C(=O)Nc1ccccc1O2,> 16 µM (inactive)
11,COc1cccc(C2C3CN(C)CC=C3C(C#N)=C(N)C2(C#N)C#N)c1OC (configuration not stated),12.3 µM (inactive)
12,Cc1oc(C)c2c(=O)ccc3c(c12)OC(N)=C(C#N)C3c1ccccc1 (configuration not stated),> 16 µM (inactive)
13,CC(C)OC(=O)CN1C(=O)S/C(=C/c2ccc(N3CCCCC3)o2)C1=O,1.7 µM
14,CN1CC=C2C(C#N)=C(N)C(C#N)(C#N)[C@H](c3cccc(Cl)c3)C2C1 (some centres not stated),8.14 µM
15,CC(=O)c1c(C)[nH]c(-c2ccccc2)nc1=S,9.08 µM
16,CCOc1cc(N(CC)CC)ccc1/C=C(/C#N)c1nc2ccccc2[nH]1,4.49 µM
17,COc1ccc(C(=O)c2sc3nc(-c4ccccc4)ccc3c2N)cc1OC,> 16 µM (inactive)
18,Nc1c(C(=O)N/N=C/c2ccccc2Cl)oc2nc(-c3ccccc3)cc(-c3ccco3)c12,> 16 µM (inactive)
19,COc1ccccc1NS(=O)(=O)c1cc([N+](=O)[O-])ccc1N/N=C/c1sc(N2CCOCC2)nc1-c1ccccc1,1.83 µM
20,Cc1ccnc(N/C=C(\C#N)c2nc(-c3cccc(Br)c3)cs2)c1,> 16 µM (inactive)
21,CN1CC=C2C(C#N)=C(N)C(C#N)(C#N)C(c3ccsc3)C2C1 (configuration not stated),10.4 µM (inactive)
22,O=C1c2cccc3c(O)ccc(c23)C(=O)N1Cc1ccco1,13.7 µM (inactive)
23,CCN1/C(=C/C=C/c2oc3ccc4ccccc4c3[n+]2CC)Oc2ccc3ccccc3c21,< 0.25 µM
24,N#C/C(=C/c1ccc(N2CCCCCC2)o1)c1ccc(Cl)cc1,10.1 µM (inactive)

row,Structure (SMILES),EC50
1,Cc1ccc2nc(/C(C#N)=C\c3ccc(N4CCOCC4)o3)[nH]c2c1,3.44 µM
2,CCCCN1C(=O)/C(=C/C=C2/CC(C)(C)CN2C)SC1=S,6.8 µM
3,CC(C)NC(=O)/C(C#N)=C/c1ccc(N(C)C)o1,8.07 µM
4,N#CC1CC(c2ccc([N+](=O)[O-])cc2)=NN1c1ccc([N+](=O)[O-])cc1 (configuration not stated),> 16 µM (inactive)
5,O=C1/C(=C/c2ccc(N3CCCC3)cc2)NC(=S)N1C1CC1,7.35 µM
6,O=S(=O)(Nc1cc2nc3ccccc3nc2n1Cc1ccccc1)c1ccc(Cl)cc1,7.17 µM
7,CN(C)c1ccc(/C=C2\N=C(c3ccc(Cl)c([N+](=O)[O-])c3)NC2=O)cc1,> 16 µM (inactive)
8,COc1ccc(/C=C2\CC/C(=C\c3ccc(OC)cc3OC)C2=O)c(OC)c1,> 16 µM (inactive)
9,N#C/C(=C\c1ccc(N2CCOCC2)o1)c1nc2ccccc2[nH]1,3.42 µM
10,CN1/C(=C/C=C(C#N)C#N)C=Cc2ccccc21,> 16 µM (inactive)
11,N#C/C(=C/c1ccc(N2CCCCC2)o1)c1cccc(F)c1,8.75 µM
12,Cc1ccc(/C(C#N)=C\c2ccc(N3CCOCC3)o2)cc1,> 16 µM (inactive)
13,CC1=C/C(=C\C=C(C#N)C#N)N(C)c2ccccc21,> 16 µM (inactive)
14,CCOCCCNc1nc2c(C)cccn2c(=O)c1/C=C1\SC(=S)N(C(C)CC)C1=O (configuration not stated),4.03 µM
15,COc1cc2c3nnc(-c4ccc(F)cc4)c-3cn(Cc3ccccc3)c2cc1OC,2.89 µM
16,CCOC(=O)c1nn(-c2ccc(Cl)cc2Cl)c(=N)c(C#N)c1C,7.31 µM
17,Cc1ccc(CNc2ccc3c(c2)OCO3)cc1,> 16 µM (inactive)
18,O=C1S/C(=C\c2ccc(N3CCOCC3)o2)C(=O)N1Cc1c(F)cccc1Cl,0.976 µM
19,CC1CCCCC1NC(=O)COC(=O)c1c2c(nc3ccccc13)/C(=C/c1ccco1)CC2 (configuration not stated),> 16 µM (inactive)
20,O=C1S/C(=C\c2ccc(N3CCOCC3)o2)C(=O)N1c1ccccc1,12.5 µM (inactive)
21,CCCCn1c(O)c(C(=O)/C=C/c2c[nH]c3ccccc23)c(=O)[nH]c1=O,> 16 µM (inactive)
22,Cc1c2ccccc2nc2c(F)c(NC(C)C)c(F)c(F)c12,> 16 µM (inactive)
23,CN1CC=C2C(C#N)=C(N)C(C#N)(C#N)[C@H](c3ccoc3)[C@H]2C1,11.2 µM (inactive)
24,N#C/C(=C\c1ccc(N2CCCCC2)o1)C(N)=O,10.8 µM (inactive)

row,Structure (SMILES),EC50
1,O=C1c2cccc3c(O)ccc(c23)C(=O)N1Cc1ccccc1,5.65 µM
2,CN(C)c1ccc(/C=C2\SC(=S)N(Nc3ncc(C(F)(F)F)cc3Cl)C2=O)cc1,2.55 µM
3,Cc1ccc(-c2cn3nc(-c4ccccc4)c(-c4ccccc4)nc3n2)cc1,12.4 µM (inactive)
4,CC(C)(C)c1ccc(OCC(=O)Nc2ccc3c4c(cccc24)C(=O)NC3=O)cc1,> 16 µM (inactive)
5,Cn1cc(/C=C2\SC(=S)N(NC(=O)c3ccccc3)C2=O)c2ccccc21,> 16 µM (inactive)
6,Cc1nonc1NC(=O)CSc1nc2c(C)cccc2cc1C#N,> 16 µM (inactive)
7,CN1CCS/C1=C/C=C1/SC(=S)N(Cc2ccccc2)C1=O,> 16 µM (inactive)
8,CC(=O)Nc1sc(/C(C#N)=C\c2cccc(Cl)c2)nc1-c1ccc(C)cc1,8.92 µM
9,CCC(C)N1C(=O)/C(=C/c2c(NCCCOC(C)C)nc3c(C)cccn3c2=O)SC1=S (configuration not stated),2.83 µM
10,CC(=O)c1ccc2cccc3c2c1N=CN3C,> 16 µM (inactive)
11,Cc1ccc(-c2ccc(/C=C(\C#N)C(=O)Nc3cc(C)nn3-c3ccccc3)o2)cc1,> 16 µM (inactive)
12,CCCOc1cc(N(CC)CC)ccc1/C=C(/C#N)c1nc2ccc(C)cc2[nH]1,9.89 µM
13,COc1cc2c3nnc(-c4ccccc4)c-3cn(Cc3ccccc3F)c2cc1OC,3.09 µM
14,CCCN1C(=O)c2cccc3c(N4CCCCC4)ccc(c23)C1=O,> 16 µM (inactive)
15,CCCN1C(=O)/C(=C\C=C2\N(CC)c3ccccc3C2(C)C)SC1=S,> 16 µM (inactive)
16,CCCN1C(=O)/C(=C/c2c(N3CCNC(=O)C3CC(=O)OCC)nc3c(C)cccn3c2=O)SC1=S (configuration not stated),> 16 µM (inactive)
17,CN1/C(=C\C=C(/C#N)C(=O)Nc2ccccc2F)C(C)(C)c2ccccc21,> 16 µM (inactive)
18,C=CCN1C=CC(=CC=C(C#N)C#N)C=C1,10.4 µM (inactive)
19,COc1cc(N2CCCC2)c(OC)cc1/C=C(/C#N)c1cccc(Br)c1,4.79 µM
20,Cc1oc(C)c2c(=O)ccc3c(c12)OC(N)=C(C#N)C3c1ccc(F)cc1 (configuration not stated),> 16 µM (inactive)
21,CC(C)(C)NC(=S)N/N=C\c1ccc(-c2ccc([N+](=O)[O-])cc2)o1,14.3 µM (inactive)
22,N#C/C(=C/c1ccc(N2CCOCC2)o1)c1ccc(Cl)cc1,9.12 µM
23,CN1CC=C2C(C#N)=C(N)C(C#N)(C#N)C(c3ccncc3)C2C1 (configuration not stated),> 16 µM (inactive)
24,COc1cc(/C=C(\C#N)c2nc3ccccc3o2)ccc1O,> 16 µM (inactive)

# Reference: PubChem BioAssay AID1625 (Sanford-Burnham Center for Chemical Genomics, 2009)
